Experiment [1] concerns Pichia guilliermondii wild type and regulatory mutants (rib81). Nature of the experiment: Sensitivity after electroporation to K2Cr2O7, medium with 0.5% glycerol (Table 21). It is filed as cell-based. As to conditions: Cr^+6 250–350 μM, 0.6 M KCl. From the text:
The possibility for positive selection of P. guilliermondii rib81 transformants unable to overproduce riboflavin in minimal medium was studied. For this, the toxicity of K2Cr2O7 (Cr^+6) was compared for the P. guilliermondii wild-type strain ATCC 9058 and regulatory mutants P. guilliermondii rib81 9-20 and 20-2. The cells were pregrown in liquid YPD to OD 1.5–2.0 (540 nm) and electroporated according to the protocol described (Example 34). Electroporated cells were washed three times with 10×volume of 0.6 M KCl and then the volume was adjusted to 1 ml. Then the cells were plated at 0.2 ml suspension per plate which contained 0.5% glycerol, 0.6 M KCl and K2Cr2O7 (50–1000 μM).
The visual selection of the non-overproducing riboflavin transformants is rather arbitrary and uncertain. Therefore it was decided to develop the method for positive selection of the transformants using tentative differences in sensitivity to K2Cr2O7 of wild-type P. guilliermondii and the regulatory mutants rib81 9-20 and 20-2. After 6 days of cultivation in the medium with 0.5% glycerol, it was shown that K2Cr2O7 at 150–180 μM inhibited growth of regulatory mutant 9-20 more strongly than that of the wild strain (Table 21).

For experiment [2] the test system is unchanged. Nature of the experiment: Sensitivity after electroporation to K2Cr2O7, Burkholder medium with 0.3 M sucrose (Table 22). As to conditions: K2Cr2O7 400 μM. It is filed as cell-based. Also noted: key: +++: strong growth; ++: weak growth; +: very weak growth; —: absence of growth.

On to `[K+].[K+].[O]=[Cr](=[O])([O-])[O][Cr](=[O])(=[O])[O-]` [K2Cr2O7], for which, in experiment [1], the “growth of wild-type strain P. guilliermondii ATCC 9058” value was “only slightly depressed”. Also, the growth result in experiment [2] (#9-20 (leu2)) and in experiment [2] (ATCC9058) was “+” throughout.

The record behind these values is patent US7009045B2 (priority 2000, dated 2006).
